Experimental data as given in PMC7405733, “Pharmacokinetics of micafungin in patients treated with extracorporeal membrane oxygenation: an observational prospective study” (Revista Brasileira de Terapia Intensiva, 2020).
≈ marks a conversion by molar mass, not a printed value. Like-named read-outs stand apart in the source and are kept apart here. *1 amine or outer side, *2 acyl side, *3 side chain or, on linkers, in order; H or OH if unused. Where a SMILES comes first, the peptide text is derived from it. Bridges are numbered along the chain shown (N, C = ends). [ ]: non-standard residue; d: D form. The star is where a group is joined. hTyr(3S-OH,4S-OH,3'-OSO3H) = N[C@H](C(=O)O)[C@H](O)[C@@H](O)c1ccc(O)c(OS(=O)(=O)O)c1; Orn(4R-OH,5R-OH) = O=C([C@H](C[C@@H](O)[C@@H](O)N[*:3])N[*:1])[*:2]; Pro(3S-OH,4S-Me) = C[C@H]1CN[C@H](C(=O)O)[C@H]1O; X1 = CCCCCOc1ccc(-c2cc(-c3ccc(C(=O)*)cc3)no2)cc1; Gln(3R-OH) = NC(=O)C[C@@H](O)[C@H](N)C(=O)O; Hyp = O=C(O)[C@@H]1C[C@@H](O)CN1

How the values were obtained:
[1] = test system: candidemia; assay: Candidemia in patients on ECMO receiving prophylactic micafungin; format: in vivo, human; conditions: prophylactic micafungin 100mg, 12 adult ECMO patients
Method: (§1) We conducted an observational, prospective, noninterventional and nondrug-linked study of the PKs and safety of micafungin in adult patients treated with ECMO in two Spanish hospitals: the intensive care unit (ICU) of the Hospital Universitario Marqués de Valdecilla, Santander, and the Anaesthesiology and Reanimation Department of the Hospital Universitario La Fe, Valencia, Spain. Prophylactic micafungin was administered in all patients. The study period was from January 2015 until April 2016. The PK analysis was performed in the Hospital del Mar, Barcelona, Spain. The trial was authorized by the corresponding Ethics Committees (CEIC Approval Number 17/2014), and Informed Consent of all the patients or their legal representatives was obtained.

[2] = test system: Candida albicans; set-up: method as in PMID 24153129, PMID 21300835; conditions: published for Candida albicans; cited from earlier work
[3] = ECMO patients vs non-ECMO patients; hemodialysis was used in 4 patients; cited from earlier work
From the text: Adsorption by the hemoﬁlter appears to be the most likely explanation when this is in line with an ECMO system. In an “ex vivo” study, the recovery of micafungin was 91% when the in-line hemofilter was removed.

[4] = set-up: method as in PMID 25947367; conditions: daily dose of 100mg, cited from earlier work
[5] = Micafungin plasma pharmacokinetics in adult patients treated with ECMO (samples before and after the oxygenation membrane); format: in vivo, human; conditions: for clearance / Vd / Cmax / AUC: human
Method: as §1
Micafungin was given at a dose of 100mg diluted in 100ml of 0.9% saline in a 60-minute infusion always protected from light to prevent degradation. Five mL blood samples were taken, protected from light, on days 1 and 4 of the treatment with micafungin. The samples were taken through an access point before and after the oxygenation membrane (input and output, respectively). The extraction times for the calculation of complete PK curves were as follows: before the administration of the drug (trough or zero time); immediately after intravenous infusion (1-hour peak or end-of-infusion peak); and 3, 5, 8, 18 and 24 hours after the beginning of the infusion. Samples were centrifuged at a speed of 1,000g for ten minutes at 4 °C. The supernatant plasma was aliquoted into volumes of 150µl that were frozen at -80 °C until they were to be analyzed. The measurement of the total micafungin concentration (free plus protein-bound fractions) was performed by means of a high-performance liquid chromatography technique.
The following PK parameters were calculated: area under the curve (AUC), CL, Vd and plasma half-life time (t/2) with a noncompartmental PK data analysis using a nonparametric method: the Mann-Whitney test and the Wilcoxon signed-rank test (paired test, in consecutive days). For precision analysis, confidence intervals were calculated by bootstrapping with 1,000 repetitions using the method […] (BCa).
The calculation of the differences in the concentration of micafungin at the input (Cin) and output (Cout) of the oxygenator membrane allowed us to calculate the oxygenator’s degree of extraction. It should be remembered that there may be losses of micafungin in tubes and cannula and in the centrifugal pump.
Only continuous epidemiological and clinical data are presented as the mean and standard deviation (SD), and categorical data are presented as absolute numbers because of the small sample size. The rest of the parameters, including Cmin and Cmax, are presented as medians.

## CCCCCOc1ccc(-c2cc(-c3ccc(C(=O)N[C@H]4C[C@@H](O)[C@@H](O)NC(=O)[C@@H]5[C@@H](O)[C@@H](C)CN5C(=O)[C@H]([C@H](O)CC(N)=O)NC(=O)[C@H]([C@H](O)[C@@H](O)c5ccc(O)c(OS(=O)(=O)O)c5)NC(=O)[C@@H]5C[C@@H](O)CN5C(=O)[C@H]([C@@H](C)O)NC4=O)cc3)no2)cc1 [micafungin] (X1-[Orn(4R-OH,5R-OH)]T[Hyp][hTyr(3S-OH,4S-OH,3'-OSO3H)][Gln(3R-OH)][Pro(3S-OH,4S-Me)]; lactam 1-C)
[1]
  candidemia in patients on ECMO who received prophylactic micafungin: No candidemia was observed
[2]
  MIC90: 0.03 µg/mL (≈ 0.0236 µM)
[3]
  reduction in the AUC in the ECMO group versus non-ECMO control group: 23%
[4]; ICU patients (without ECMO)
  AUC after a daily dose of 100mg in ICU patients: 78.6 mg·h/L
[4]; healthy adults
  AUC after a daily dose of 100mg in healthy adults: 132.6 mg·h/L
[5]; Table 2, day 1, after membrane, 100mg iv, ECMO patients, plasma HPLC, median
  Cmin out: 1410 ng/mL
[5]; Table 2, day 1, before membrane, 100mg iv, ECMO patients, noncompartmental, median
  CL in: 1.07 L/h
[5]; Table 2, day 1, before membrane, 100mg iv, ECMO patients, plasma HPLC, median
  Cmin in: 1410 ng/mL
[5]; Table 2, day 4, after membrane, 100mg iv, ECMO patients, plasma HPLC, median
  Cmin out: 1750 ng/mL
[5]; Table 2, day 4, before membrane, 100mg iv, ECMO patients, plasma HPLC, median
  Cmin in: 1800 ng/mL
[5]; adult ECMO patients, 100mg 60-minute iv infusion, day 1, sample before the membrane, plasma total concentration by HPLC, noncompartmental, 95%CI 52.8 - 73.4, 10 patients
  AUCin on day one: 62100 ng·h/mL
[5]; day 1, ECMO patients with acute kidney injury, after membrane, 100mg iv, p = 0.71
  AKI AUCout: 69.3 p = 0.71
[5]; day 1, ECMO patients with hepatic failure, after membrane, 100mg iv, p = 0.91
  Hepatic failure AUCout: 61.6 p = 0.91
[5]; day 4, ECMO patients with acute kidney injury, after membrane, 100mg iv, p = 0.88
  AKI AUCout: 106.7 p = 0.88
[5]; day 4, ECMO patients with hepatic failure, after membrane, 100mg iv, p = 0.68
  Hepatic failure AUCout: 85.2 p = 0.68
[5]; first day of treatment, 100mg iv, ECMO patients, figure 1A
  concentration difference between samples before the membrane (C in) and after the membrane (C out): did not show any concentration difference
[5]; fourth day of treatment, 100mg iv, ECMO patients, figure 1B
  concentration difference between samples before the membrane (Cin) and after the membrane (Cout): did not show any concentration difference
[5]; plasma, iv, 100 mg, Table 2, day 1, after membrane, 100mg iv, ECMO patients, noncompartmental, median, read-out: CL out (converted)
  clearance: 16.5 mL/min
[5]; plasma, iv, 100 mg, Table 2, day 1, after membrane, 100mg iv, ECMO patients, noncompartmental, median, read-out: Vd out
  Vd: 27.2 L
[5]; plasma, iv, 100 mg, Table 2, day 1, after membrane, 100mg iv, ECMO patients, plasma HPLC, median, read-out: Cmax out
  Cmax: 4950 ng/mL
[5]; plasma, iv, 100 mg, Table 2, day 1, after membrane, 100mg iv, ECMO patients, plasma HPLC, noncompartmental, median, read-out: AUC out
  AUC: 54100 ng·h/mL
[5]; plasma, iv, 100 mg, Table 2, day 1, before membrane, 100mg iv, ECMO patients, noncompartmental, median, read-out: Vd in
  Vd: 28.6 L
[5]; plasma, iv, 100 mg, Table 2, day 1, before membrane, 100mg iv, ECMO patients, plasma HPLC, median, read-out: Cmax in
  Cmax: 5850 ng/mL
[5]; plasma, iv, 100 mg, Table 2, day 4, after membrane, 100mg iv, ECMO patients, noncompartmental, median, read-out: CL out (converted)
  clearance: 12.8 mL/min
[5]; plasma, iv, 100 mg, Table 2, day 4, after membrane, 100mg iv, ECMO patients, noncompartmental, median, read-out: Vd out
  Vd: 18.1 L
[5]; plasma, iv, 100 mg, Table 2, day 4, after membrane, 100mg iv, ECMO patients, plasma HPLC, median, read-out: Cmax out
  Cmax: 6750 ng/mL
[5]; plasma, iv, 100 mg, Table 2, day 4, after membrane, 100mg iv, ECMO patients, plasma HPLC, noncompartmental, median, read-out: AUC out
  AUC: 81000 ng·h/mL
[5]; plasma, iv, 100 mg, Table 2, day 4, before membrane, 100mg iv, ECMO patients, noncompartmental, median, read-out: CL in (converted)
  clearance: 11.8 mL/min
[5]; plasma, iv, 100 mg, Table 2, day 4, before membrane, 100mg iv, ECMO patients, noncompartmental, median, read-out: Vd in
  Vd: 16.1 L
[5]; plasma, iv, 100 mg, Table 2, day 4, before membrane, 100mg iv, ECMO patients, plasma HPLC, median, read-out: Cmax in
  Cmax: 12200 ng/mL
[5]; plasma, iv, 100 mg, Table 2, day 4, before membrane, 100mg iv, ECMO patients, plasma HPLC, noncompartmental, median, read-out: AUC in
  AUC: 88800 ng·h/mL
[5]; plasma, iv, 100 mg, day 1, ECMO patients without acute kidney injury, after membrane, 100mg iv, read-out: No AKI AUCout
  AUC: 61900 ng·h/mL
[5]; plasma, iv, 100 mg, day 1, ECMO patients without hepatic failure, after membrane, 100mg iv, read-out: No hepatic failure AUCout
  AUC: 66100 ng·h/mL
[5]; plasma, iv, 100 mg, day 4, ECMO patients without acute kidney injury, after membrane, 100mg iv, read-out: No AKI AUCout
  AUC: 95100 ng·h/mL
[5]; plasma, iv, 100 mg, day 4, ECMO patients without hepatic failure, after membrane, 100mg iv, read-out: No hepatic failure AUCout
  AUC: 117000 ng·h/mL
[5]; adult ECMO patients, 100mg 60-minute iv infusion, day 1, sample after the membrane, plasma HPLC, noncompartmental, 95%CI 52.4 - 76.7, 10 patients, read-out: AUCout on day one
  AUC: 63400 ng·h/mL
